These results are taken from ChEMBL document CHEMBL5154702, “Synthesis and biological evaluation of aminobenzamides containing purine moiety as class I histone deacetylases inhibitors” (Bioorg Med Chem, 2022).

Data set [1] deals with T1, Protein deacetylase HDAC6 (Homo sapiens, UniProt Q9UBN7).
T1 sequence (Q9UBN7 whole entry): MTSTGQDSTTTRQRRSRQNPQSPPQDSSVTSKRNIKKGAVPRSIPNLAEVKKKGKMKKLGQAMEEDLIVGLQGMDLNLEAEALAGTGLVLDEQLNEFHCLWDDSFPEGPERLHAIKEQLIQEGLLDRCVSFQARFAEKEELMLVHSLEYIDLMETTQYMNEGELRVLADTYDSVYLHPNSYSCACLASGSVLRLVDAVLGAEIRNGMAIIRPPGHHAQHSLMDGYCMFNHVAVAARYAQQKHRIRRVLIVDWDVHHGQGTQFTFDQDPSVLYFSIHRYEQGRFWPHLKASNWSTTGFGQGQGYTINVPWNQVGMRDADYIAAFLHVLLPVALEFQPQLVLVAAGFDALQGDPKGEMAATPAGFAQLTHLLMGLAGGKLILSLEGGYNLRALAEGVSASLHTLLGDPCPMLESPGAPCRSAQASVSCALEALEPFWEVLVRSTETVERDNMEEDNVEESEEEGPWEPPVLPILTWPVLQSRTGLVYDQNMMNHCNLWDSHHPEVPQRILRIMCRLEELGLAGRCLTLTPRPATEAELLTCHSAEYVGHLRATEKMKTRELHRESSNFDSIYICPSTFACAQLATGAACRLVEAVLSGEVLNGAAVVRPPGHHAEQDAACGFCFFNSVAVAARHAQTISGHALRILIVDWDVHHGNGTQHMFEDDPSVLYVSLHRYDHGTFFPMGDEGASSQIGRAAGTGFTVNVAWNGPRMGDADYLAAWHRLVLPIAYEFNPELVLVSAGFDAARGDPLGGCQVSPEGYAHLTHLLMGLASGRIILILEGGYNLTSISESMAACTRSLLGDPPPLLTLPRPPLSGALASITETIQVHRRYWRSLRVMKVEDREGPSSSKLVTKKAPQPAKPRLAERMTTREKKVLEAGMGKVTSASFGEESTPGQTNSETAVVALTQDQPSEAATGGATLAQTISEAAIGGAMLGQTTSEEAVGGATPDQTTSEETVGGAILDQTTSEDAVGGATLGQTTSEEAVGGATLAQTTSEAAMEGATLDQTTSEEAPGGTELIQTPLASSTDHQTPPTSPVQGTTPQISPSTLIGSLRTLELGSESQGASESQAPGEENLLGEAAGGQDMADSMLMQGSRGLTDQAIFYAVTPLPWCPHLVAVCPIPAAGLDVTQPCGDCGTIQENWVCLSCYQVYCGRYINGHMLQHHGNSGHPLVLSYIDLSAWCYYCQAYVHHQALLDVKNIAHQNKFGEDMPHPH
The experiment in a line: Inhibition of recombinant human N-terminal GST-tagged HDAC6 (1 to 1215 residues) expressed in Sf9 insect cells using fluorogenic HDAC substrate 3 measured after 30 mins by fluorimetry.

For data set [2], the system named is HCT-116. Briefly: Cell cycle arrest in human HCT-116 cells assessed as accumulation of cells at G0/G1 phase at 0.1 uM measured after 24 hrs by propidium iodide staining based flow cytometry (reference value: 58.05%). In kind it is functional.
Data set [3] deals with HCT-116. The experiment in a line: Induction of apoptosis in human HCT-116 cells assessed as late apoptotic cells at 5 uM measured after 24 hrs by Annexin V-FITC/propidium iodide staining based flow cytometry (reference value: 3.43%). In kind it is functional. (In flow cytometry, cells or beads pass a laser one at a time.)
The nature of data set [4]: Half life in dog liver microsomes at 13.8 uM by HPLC analysis. In kind it is ADME, Canis lupus familiaris, Microsome.
For data set [5], the system named is HCT-116. Briefly: Induction of cell morphological changes in human HCT-116 cells assessed as cell vacuolization at 0.5 to 5 uM measured after 24 hrs by phase contrast microscopy. It counts as functional, cell-based. The settings on record: dose 0.5-5 µM.
Data set [6] has as its system HCT-116. The experiment in a line: Cell cycle arrest in human HCT-116 cells assessed as up regulation of p21 expression measured after 24 hrs by Western blot analysis. It counts as functional, cell-based. The settings on record: dose 0.1-10 µM, DDE = dose-dependent effect. (In general: A western blot detects proteins with antibodies after separation by electrophoresis.)

Molecules are shown by their SMILES. Active and inactive are the calls of the source.

Broadly, the IC50 is the concentration that inhibits the measured activity by half. As a reminder, the half-life is the time needed for the level to fall by half in the phase considered. A high value points to slow loss.

Consider `CCCCNc1nc(Cl)nc2c1ncn2Cc1ccc(C(=O)Nc2ccccc2N)cc1`, for which the IC50 in data set [1] is 34.2 µM. For the same molecule, the Activity was 59.1% in data set [2], 10.1% in data set [3] and “Dde” in data set [6]. In data set [4], this molecule displayed a half-life at 13.8 µM of 3.73 h. Further, the outcome in data set [5] was Active.
